Literature values as cited in US20060058225A1, “Used of inhibitors of phospholipase a2 for the treatment, prevention or diagnosis of neural inflammatory or demyelinating disease” (McGill University, priority 2002, published 2006).
Like-named read-outs stand apart in the source and are kept apart here.

Columns and labels:
EAE [1] = details: for disease severity score in treated mice: timing of treatment not stated
EAE [2] = test system: EAE
EAE [3] = test system: EAE; remark: listed apart in the source
cPLA2 = biological target: T1, cPLA2 (Homo sapiens, UniProt P47712)
T1 sequence (P47712 1-749): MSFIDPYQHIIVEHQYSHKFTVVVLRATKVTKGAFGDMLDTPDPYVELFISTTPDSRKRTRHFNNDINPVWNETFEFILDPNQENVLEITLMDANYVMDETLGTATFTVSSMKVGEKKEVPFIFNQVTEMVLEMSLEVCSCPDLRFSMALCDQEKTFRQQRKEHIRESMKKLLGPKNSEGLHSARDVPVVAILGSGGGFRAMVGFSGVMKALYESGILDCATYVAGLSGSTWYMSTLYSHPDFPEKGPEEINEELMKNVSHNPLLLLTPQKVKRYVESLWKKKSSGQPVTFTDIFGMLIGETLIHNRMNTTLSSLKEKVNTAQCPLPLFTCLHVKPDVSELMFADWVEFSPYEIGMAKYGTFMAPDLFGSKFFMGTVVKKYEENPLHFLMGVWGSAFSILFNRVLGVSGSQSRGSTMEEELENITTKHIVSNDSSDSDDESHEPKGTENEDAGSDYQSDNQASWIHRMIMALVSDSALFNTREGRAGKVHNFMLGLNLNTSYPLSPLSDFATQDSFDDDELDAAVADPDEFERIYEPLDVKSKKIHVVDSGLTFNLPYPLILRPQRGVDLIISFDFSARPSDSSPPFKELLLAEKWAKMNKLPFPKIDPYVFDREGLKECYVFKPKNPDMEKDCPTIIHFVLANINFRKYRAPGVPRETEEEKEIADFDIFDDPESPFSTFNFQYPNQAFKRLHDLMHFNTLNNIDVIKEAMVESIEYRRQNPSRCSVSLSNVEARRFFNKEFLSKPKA

MS = details: for effect on relapses: MS patients
EAE [4] = details: guinea pigs
[5] = test system: 180 kDa calcium-dependent form of cPLA2; details: isolated from human brain
[6] = treatment given after symptoms occurred

## CCCOc1cc([C@]2(C)CNC(=O)O2)ccc1OC [Mesopram]
EAE [1]; treatment after symptoms began / at first clinical signs
  clinical score in treated mice: 2.7
EAE [2]; rats treated before the onset of symptoms
  EAE occurrence: prevented

## NS(=O)(=O)c1cccc2c1c([N+](=O)[O-])cc1nc(O)c(O)nc12 [NBQX]
EAE [3]; in vivo
  clinical score in treated animals: 1.5

## O=C1O/C(=C/Br)CCC1c1cccc2ccccc12 (stereo not shown) [bromoenol lactone]
cPLA2
  inhibition of cPLA2: inhibitors
Ca++-independent PLA2
  inhibition of Ca++-independent PLA2: inhibitors

## O=C(NN=C1CCCCC1)C(=O)NN=C1CCCCC1 [cuprizone]
EAE [1]; treatment before symptoms appeared (cuprizone: one week before EAE induction)
  clinical score in treated mice: 3.3

## O=C1c2c(O)ccc(O)c2C(=O)c2c(NCCNCCO)ccc(NCCNCCO)c21 [mitroxantrone]
MS
  effect on relapses: reduces relapse rate
MS; patients
  side effects: cardiac toxicity

## O=C(CBr)c1ccc(Br)cc1 [p-bromophenacyl bromide]
sPLA2
  inhibition of sPLA2 activity: blocked

## CN1C(C(=O)Nc2ccccn2)=C(O)c2ccccc2S1(=O)=O [piroxicam]
EAE [2]; rats
  mean clinical grade/score in treated rats: 1.5

## CC1=C(/C=C/C(C)=C/C=C/C(C)=C/C(N)=O)C(C)(C)CCC1 [retinamide]
EAE [3]; given after disease symptoms appeared
  relapse: no relapse
EAE [3]; given prior to EAE induction
  clinical grade, end of course: 0.75
  relapse: no sign of relapse
EAE [3]; given prior to EAE induction, controls 3 during relapses
  clinical grade reached: 2
EAE [3]; [6]
  clinical grade, end of course: 2
  clinical grade, start of course: 4

## O=C(O)c1cc(/N=N/c2ccc(S(=O)(=O)Nc3ccccn3)cc2)ccc1O [sulfasalazine]
EAE [4]
  disease incidence: reduced disease incidence

## Glatiramer acetate
MS
  effect on relapses: decreases the rate of relapse
MS; human, in vivo
  side effects: cardiovascular problems such as chest pain, flushing and tachycardia

## IFN-γ: interferon gamma
MS
  effect on relapses: increases the severity of the rate of relapse

## MT-II: Metallothinine (MT), thought to protect cells from reactive oxygen species
EAE [2]; rats treated starting at the day of onset of symptoms, controls 4.5
  clinical score: 2

## bromophenacyl bromide
[5]
  inhibition of 180 kDa calcium-dependent cPLA2: inhibited

## estrogen
EAE [1]; mice
  delay of disease onset: about 10 days
EAE [1]; mice, timing not given
  reduction of EAE incidence: ~30%
EAE [1]
  disease severity score in treated mice: 1.5

B1: MBP: myelin basic protein fed for oral tolerance (protein, UniProt P02686 1-304, looked up)
Myelin basic protein: MGNHAGKRELNAEKASTNSETNRGESEKKRNLGELSRTTSEDNEVFGEADANQNNGTSSQDTAVTDSKRTADPKNAWQDAHPADPGSRPHLIRLFSRDAPGREDNTFKDRPSESDELQTIQEDSAATSESLDVMASQKRPSQRHGSKYLATASTMDHARHGFLPRHRDTGILDSIGRFFGGDRGAPKRGSGKDSHHPARTAHYGSLPQKSHGRTQDENPVVHFFKNIVTPRTPPPSQGKGRGLSLSRFSWGAEGQRPGFGYGGRASDYKSAHKGFKGVDAQGTLSKIFKLGGRDSRSGSPMARR
EAE [1]
  disease severity score in treated mice: 0.6
EAE [2]; rats fed prior to disease induction, control 4
  maximum disease severity score: 1.4
EAE [3]; animals, species not given
  reduction of EAE incidence: 80%
